{"source": "PubChem BioAssay (NCI)", "assay_in_all_cases": "inhibition of tumour cell growth, NCI panel, 48 h", "key": {"LOX IMVI melanoma": {"system": "LOX IMVI melanoma"}, "A498 renal": {"system": "A498 renal"}, "OVCAR-4 ovarian": {"system": "OVCAR-4 ovarian"}, "MCF7 breast": {"system": "MCF7 breast"}, "OVCAR-5 ovarian": {"system": "OVCAR-5 ovarian"}, "MDA-MB-468 breast": {"system": "MDA-MB-468 breast"}, "MALME-3M melanoma": {"system": "MALME-3M melanoma"}, "HCT-15 colon": {"system": "HCT-15 colon"}, "DU-145 prostate": {"system": "DU-145 prostate"}, "EKVX NSCLC": {"system": "EKVX NSCLC"}, "NCI/ADR-RES ovarian": {"system": "NCI/ADR-RES ovarian"}, "SW-620 colon": {"system": "SW-620 colon"}, "U251 CNS": {"system": "U251 CNS"}, "OVCAR-3 ovarian": {"system": "OVCAR-3 ovarian"}, "HCT-116 colon": {"system": "HCT-116 colon"}, "ACHN renal": {"system": "ACHN renal"}, "COLO 205 colon": {"system": "COLO 205 colon"}, "SF-295 CNS": {"system": "SF-295 CNS"}, "SK-MEL-28 melanoma": {"system": "SK-MEL-28 melanoma"}, "BT-549 breast": {"system": "BT-549 breast"}, "NCI-H522 lung": {"system": "NCI-H522 lung"}, "OVCAR-8 ovarian": {"system": "OVCAR-8 ovarian"}, "HT29 colon": {"system": "HT29 colon"}, "SF-539 CNS": {"system": "SF-539 CNS"}, "SR leukemia": {"system": "SR leukemia"}, "M14 melanoma": {"system": "M14 melanoma"}, "TK-10 renal": {"system": "TK-10 renal"}, "UACC-62 melanoma": {"system": "UACC-62 melanoma"}}, "note": "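Assay format: 96-well plates, 48-hour exposure. GI50 = concentration required for 50% inhibition of growth. TGI: total growth inhibition.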", "data": [{"smiles": "C=C1CC[C@H](C(=C)C)[C@H]2C=C(C)C(=O)C3=C(C(=O)[C@@](C)(O)C3)[C@H]12", "values": [{"measurement": "GI50", "setting": "LOX IMVI melanoma", "value": 0.369, "unit": "µM"}, {"measurement": "TGI", "setting": "LOX IMVI melanoma", "value": 1.5, "unit": "µM"}, {"measurement": "GI50", "setting": "A498 renal", "value": 3.56, "unit": "µM"}, {"measurement": "TGI", "setting": "A498 renal", "value": 8.5, "unit": "µM"}, {"measurement": "GI50", "setting": "OVCAR-4 ovarian", "value": 1.55, "unit": "µM"}, {"measurement": "TGI", "setting": "OVCAR-4 ovarian", "value": 2.99, "unit": "µM"}, {"measurement": "GI50", "setting": "MCF7 breast", "value": 0.639, "unit": "µM"}, {"measurement": "TGI", "setting": "MCF7 breast", "value": 2.02, "unit": "µM"}, {"measurement": "GI50", "setting": "OVCAR-5 ovarian", "value": 1.52, "unit": "µM"}, {"measurement": "TGI", "setting": "OVCAR-5 ovarian", "value": 2.98, "unit": "µM"}, {"measurement": "GI50", "setting": "MDA-MB-468 breast", "value": 0.528, "unit": "µM"}, {"measurement": "TGI", "setting": "MDA-MB-468 breast", "value": 1.94, "unit": "µM"}, {"measurement": "GI50", "setting": "MALME-3M melanoma", "value": 1.47, "unit": "µM"}, {"measurement": "TGI", "setting": "MALME-3M melanoma", "value": 2.88, "unit": "µM"}, {"measurement": "GI50", "setting": "HCT-15 colon", "value": 0.349, "unit": "µM"}, {"measurement": "TGI", "setting": "HCT-15 colon", "value": 1.4, "unit": "µM"}, {"measurement": "GI50", "setting": "DU-145 prostate", "value": 1.23, "unit": "µM"}, {"measurement": "TGI", "setting": "DU-145 prostate", "value": 2.48, "unit": "µM"}, {"measurement": "GI50", "setting": "EKVX NSCLC", "value": 1.7, "unit": "µM"}, {"measurement": "TGI", "setting": "EKVX NSCLC", "value": 3.3, "unit": "µM"}, {"measurement": "GI50", "setting": "NCI/ADR-RES ovarian", "value": 1.95, "unit": "µM"}, {"measurement": "TGI", "setting": "NCI/ADR-RES ovarian", "value": 5.52, "unit": "µM"}, {"measurement": "GI50", "setting": "SW-620 colon", "value": 1.38, "unit": "µM"}, {"measurement": "TGI", "setting": "SW-620 colon", "value": 3.11, "unit": "µM"}, {"measurement": "GI50", "setting": "U251 CNS", "value": 1.09, "unit": "µM"}, {"measurement": "TGI", "setting": "U251 CNS", "value": 2.38, "unit": "µM"}, {"measurement": "GI50", "setting": "OVCAR-3 ovarian", "value": 1.2, "unit": "µM"}, {"measurement": "TGI", "setting": "OVCAR-3 ovarian", "value": 2.48, "unit": "µM"}, {"measurement": "GI50", "setting": "HCT-116 colon", "value": 0.801, "unit": "µM"}, {"measurement": "TGI", "setting": "HCT-116 colon", "value": 2.07, "unit": "µM"}, {"measurement": "GI50", "setting": "ACHN renal", "value": 1.48, "unit": "µM"}, {"measurement": "TGI", "setting": "ACHN renal", "value": 2.8, "unit": "µM"}, {"measurement": "GI50", "setting": "COLO 205 colon", "value": 1.74, "unit": "µM"}, {"measurement": "TGI", "setting": "COLO 205 colon", "value": 3.25, "unit": "µM"}, {"measurement": "GI50", "setting": "SF-295 CNS", "value": 1.48, "unit": "µM"}, {"measurement": "TGI", "setting": "SF-295 CNS", "value": 2.84, "unit": "µM"}, {"measurement": "GI50", "setting": "SK-MEL-28 melanoma", "value": 1.63, "unit": "µM"}, {"measurement": "TGI", "setting": "SK-MEL-28 melanoma", "value": 2.99, "unit": "µM"}, {"measurement": "GI50", "setting": "BT-549 breast", "value": 1.45, "unit": "µM"}, {"measurement": "TGI", "setting": "BT-549 breast", "value": 2.77, "unit": "µM"}, {"measurement": "GI50", "setting": "NCI-H522 lung", "value": 1.18, "unit": "µM"}, {"measurement": "TGI", "setting": "NCI-H522 lung", "value": 2.53, "unit": "µM"}, {"measurement": "GI50", "setting": "OVCAR-8 ovarian", "value": 1.46, "unit": "µM"}, {"measurement": "TGI", "setting": "OVCAR-8 ovarian", "value": 3.69, "unit": "µM"}, {"measurement": "GI50", "setting": "HT29 colon", "value": 1.07, "unit": "µM"}, {"measurement": "TGI", "setting": "HT29 colon", "value": 3.23, "unit": "µM"}, {"measurement": "GI50", "setting": "SF-539 CNS", "value": 1.41, "unit": "µM"}, {"measurement": "TGI", "setting": "SF-539 CNS", "value": 2.71, "unit": "µM"}, {"measurement": "GI50", "setting": "SR leukemia", "value": 0.324, "unit": "µM"}, {"measurement": "TGI", "setting": "SR leukemia", "value": 2.06, "unit": "µM"}, {"measurement": "GI50", "setting": "M14 melanoma", "value": 1.34, "unit": "µM"}, {"measurement": "TGI", "setting": "M14 melanoma", "value": 2.82, "unit": "µM"}, {"measurement": "GI50", "setting": "TK-10 renal", "value": 1.79, "unit": "µM"}, {"measurement": "TGI", "setting": "TK-10 renal", "value": 3.22, "unit": "µM"}, {"measurement": "GI50", "setting": "UACC-62 melanoma", "value": 1.23, "unit": "µM"}, {"measurement": "TGI", "setting": "UACC-62 melanoma", "value": 2.48, "unit": "µM"}]}]}
